Where two headings read alike, the source gives them in different places. Where no end group is shown, it is not given here.

What is called LD50 is the dose expected to kill half of the subjects tested.

Series [1] in a line: Single-dose in vivo toxicity, LD50 determination. Particulars: BALB/c, mouse, in vivo, ip. Set-up: species or system mouse.
Series [2] deals with BALB/c mice. The experiment in a line: Multidose cumulative toxicity, mouse survival. The conditions noted are these: repeated maximum sublethal doses. It counts as in vivo.
For series [3], the system named is panel of 30 type cultures. The experiment in a line: I_score ranking from the MICs of 30 type cultures. The conditions noted are these: number of cultures inhibited with the lowest MIC among the five peptides.
For series [4] the following is noted: cited from earlier work.
The conditions of series [5]: clinical dose, human volunteers; cited from earlier work.
The conditions of series [6]: in 4 hours; cited from earlier work.
Series [7] has as its system BALB/c mice. The experiment in a line: Single-dose in vivo toxicity, LD50 determination. Set-up: species or system mouse.
Series [8] deals with BALB/c mice. The experiment in a line: Kidney and liver histopathology after multidose treatment. The format is in vivo, mouse. The conditions noted are these: after 11 maximum sublethal doses.
The subject of series [9] is A. baumannii (P1270). Description: Radiolabeled phosphate leakage radioassay. It counts as cell-based. The conditions noted are these: in 60 min; Ω76 32 mg/liter, colistin 5 mg/liter.
For series [10] the following is noted: cited from earlier work. The source holds these as a separate data set.
For series [11] the following is noted: clinical dose, mouse serum; cited from earlier work.
Series [12] deals with A. baumannii (P1270). Description: Time-kill curves in ex vivo whole human blood. The conditions noted are these: in 60 min; Ω76 32 mg/liter, colistin 5 mg/liter.
[13] abbreviates: young patient cohort, Walter Reed Army Medical Center.

“H-GIGKFLKKAKKFGKAFVKILKK-NH2 [Pexiganan]” displayed an LD50 at 5 days in series [1] of 60 mg/kg. The mortality in mice in the series on BALB/c mice [2] turned out to be 100%.

In turn, IKALGKKLRKGKKKIGKKVK [Ω93] showed an I_score in series [3] of 1.

Take melittin: the hemolytic properties entry in series [4] is given as “display hemolytic properties”.

In the case of `C[C@@H](O)[C@H]1C(=O)N2C(C(=O)O)=C(S[C@@H]3CN[C@H](C(=O)N(C)C)C3)[C@H](C)[C@H]12` [meropenem], in [5], the “time above MIC concentrations in serum” value was 5 h. Besides, in series [6], the CFU reduction was 100 fold.

Regarding lactoferrampin, in series [4], the hemolytic properties result is on record as “display hemolytic properties”.

For the compound colistin, the “LD50 (median lethal dose)” value in the series with BALB/c mice [7] (intraperitoneal, monitored 5 days, linear interpolation) is 30 mg/kg. In the series on BALB/c mice [7] (intraperitoneal, single dose), this compound returned a maximum sublethal dose of 16 mg/kg. The “mortality (mice)” value in the series on BALB/c mice [7] (single dose of 32 mg/kg) is 3 of 5. In the series on BALB/c mice [2], this compound returned a mortality in mice of 50%. In the series with BALB/c mice [8], the kidney histology entry is given as “extensive renal damage” and the liver histology result is recorded as “displaying no damage”. In the series with A. baumannii (P1270) [9], the intracellular phosphate lost came out at 25%. Also, in series [10] (Korean elderly patient cohort, treated for ≥72 hours), the acute kidney injury was 54.6%. Also, in series [10] (Turkish elderly patient cohort), the acute kidney injury was 46.1%. In addition, in [10] (setting [13]), the acute kidney injury was 45% and the “cessation of treatment due to nephrotoxicity” value is on record as 21%. Besides, the “time above MIC concentrations in serum” value in [11] is 100 min. The CFU reduction in the series on A. baumannii (P1270) [12] came out at 32 fold.

Consider gramicidin S, for which, in series [4], the hemolytic properties entry is “display hemolytic properties”.

Source of the values: article PMC6656545 (Science Advances, 2019).
